Where “and” joins values, the source holds several entries; their conditions need not be identical. Equal values may be shown once.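 Briefly, cells in 96-well plates were exposed to five compound concentrations for 48 h, and endpoints were estimated by linear interpolation. GI50: concentration for 50% inhibition of growth. Definition used: TGI = concentration required for complete inhibition of growth.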

This note sets out measurements from PubChem BioAssay (NCI).

In this test the test system is MDA-MB-468 breast. Nature of the test: growth of human tumour cells (NCI), 48 h.
Regarding `CCSCC1CC(O)(c2ccccc2)CC(c2ccc(F)cc2)O1` (stereo not drawn), the GI50 is 2040 nM and the TGI was 6050 nM.
The matching figures for `Cc1nc([P+](c2ccccc2)(c2ccccc2)c2ccccc2)c(Sc2sc(-c3ccccc3)nc2[P+](c2ccccc2)(c2ccccc2)c2ccccc2)o1`: 417 nM and 3280 nM.
In the same order, the values of `Cc1cccc(N(C)C(=O)[C@@H]2[C@H](O)CCN2c2nc(C)cc(C(F)(F)F)c2C#N)c1` are 17300 nM and 51300 nM.
The matching figures for `N#Cc1c(-n2c(Br)c(Br)c3cc(Br)ccc32)[nH]c2c(Br)cc(Br)cc12`: 907 nM and 3340 nM.
As to `CC(N)C(Cc1ccc(Cl)cc1)c1ccc(Cl)cc1` (stereo not drawn), the GI50 is 2960 nM and the TGI was found to be 11700 nM.
Take `Fc1cc2[nH]ncc2c2c3c(c(-c4cn[nH]c4C(F)(F)F)nc12)CCCC3`: the GI50 is 1580 nM and the TGI is 4350 nM.
In the same order, the values of `C=C1CC[C@@H]2[C@](C)(COC(C)=O)[C@H](OC(C)=O)CC[C@@]2(C)[C@@H]1CC(Nc1ccc(S(=O)(=O)NC(C)=O)cc1)C1=CCOC1=O` (stereo partly drawn) are 1530 nM and 3130 nM.
On to `O=C(CCCCCCNC(=O)C(O)(O)C(F)(F)F)Nc1ccc(Cl)cc1`, for which the GI50 is 1380 nM and the TGI is 22200 nM.
Consider `CC(C)(C)c1ccc(S(=O)(=O)Oc2ccc3c4c(c(=O)oc3c2)CCCCC4)cc1`, for which the GI50 is 3410 nM and the TGI was more than 100000 nM.
The matching figures for `Fc1cccc(COc2ccc(Nc3ncnc4sc(-c5cccs5)cc34)cc2Cl)c1`: 201 nM and 2310 nM.
As for `CC(=O)Nc1ccc2c(c1)C(c1ccccc1Cl)=Nc1c(n[nH]c1C)N2`, the GI50 is 1630 nM and the TGI is more than 25000 nM.
The matching figures for `NS(=O)(=O)c1ccc(Nc2cc(-c3cccc(O)c3)[nH]n2)cc1`: 9580 nM and more than 25000 nM.
The matching figures for `CC(=O)O[C@H]1C(=O)[C@@]2(C)C(C(OC(=O)c3ccccc3)[C@]3(O)C[C@H](OC(=O)C(OC(=O)CCCC(=O)NCCCN(C)C)C(NC(=O)c4ccccc4)c4ccccc4)C(C)=C1C3(C)C)C1(OC(C)=O)COC1C[C@@H]2O` (stereo partly drawn): less than 10 nM and 10400 nM.
As to `O=Nc1ccc(O)c(=O)cc1`, the GI50 was 739 nM and the TGI worked out at 2440 nM.
As to `O=S(=O)(NCCCNc1nccc(-c2c(-c3ccc(O)cc3)nc3sccn23)n1)c1ccc(F)cc1`, the GI50 was 2000 nM and the TGI came out at 9430 nM.
In the same order, the values of `Cc1nc2ccc(Nc3nc(Cl)nc(N4CCOCC4)n3)cc2n1Cc1ccccc1` are 2210 nM and 7090 nM.
With `COc1ccc(/C=C/C(=O)c2cc(OC)c(OC)c(OC)c2)cc1OCC(=O)Nc1nc2ccc(OC(F)(F)F)cc2s1`, the GI50 was 3520 nM and the TGI was determined as 21200 nM.
In the same order, the values of `CC(=O)c1ccc2c(c1)c1cc(C(C)=O)ccc1n2CCNC(C)C` are 330 nM and 1740 nM.
The matching figures for `Cc1cc2nc3c4cc(O)ccc4n(CCN(C)C)c3nc2cc1C`: 816 nM and 2780 nM.
In the same order, the values of `COC[C@@H](N=C1NC(=O)/C(=C/c2ccc3ncccc3c2)S1)c1ccccc1` are 4510 nM and 17600 nM.
In the case of `COc1cc(/C=C\c2cc(OC)c(OC)c(OC)c2)cc(N/C=C\C(=O)c2ccc(OC(F)(F)F)cc2)c1OC`, the GI50 is 3160 nM and the TGI was more than 100000 nM.
On to `COc1cc(C2Cc3ncccc3-c3[nH]c(=O)c4cccnc4c32)cc(OC)c1OC` (stereo not drawn), for which the GI50 is 340 nM.
Regarding `CCN1C(=S)N(c2ccccc2)C2NC(=S)N(/N=C/C=C/c3ccccc3OC)C21` (stereo not drawn), the GI50 is 292 nM and the TGI amounted to 1060 nM.
As for `CS(=O)(=O)Nc1cncc(-c2ccc3ncnc(Nc4ccc(F)c(Cl)c4)c3c2)c1`, the GI50 is 181 nM and the TGI is 936 nM.
As to `CCOC(=O)c1cc(C(=O)c2cc(OC)c(OC)c(OC)c2)n2ncccc12`, the GI50 is 248 nM and the TGI was 32200 nM.
In the same order, the values of `OCCN1CCN(CCCN2c3ccccc3Sc3ccc(Cl)cc32)CC1` are 1270 nM and 2700 nM.
Consider `Nc1nccc(-c2c(-c3ccc(F)cc3)ncn2C2CCNCC2)n1`, for which the GI50 was 649 nM and 2520 nM; the TGI was > 10800 nM and 11500 nM.
As to `CN(c1ncccc1CNc1nc(Nc2ccc3c(c2)CC(=O)N3)ncc1C(F)(F)F)S(C)(=O)=O`, the GI50 is 1830 nM and 1620 nM; the TGI was 4040 nM and 4840 nM.
Take `COc1ccc(C2=N[C@@H](Cc3ccccc3)C(=O)Nc3ccsc32)cc1`: the GI50 was 1760 nM and the TGI was 4580 nM.
In the same order, the values of `CCN(CC)c1ccc(/C=N/NC(=O)CSc2nc3ccccc3c(=O)n2CCc2ccc(S(N)(=O)=O)cc2)c(O)c1` are 2120 nM and more than 100000 nM.
Consider `O=C(Nc1ccc2[nH]nc(-c3ccncc3)c2c1)[C@@H]1CCN(CC(=O)N2CCN(c3ccc(-c4ncccn4)cc3)CC2)C1`, for which the GI50 was more than 100000 nM and the TGI is more than 100000 nM.
Regarding `CCC(C)[C@H]1O[C@]2(CC[C@@H]1C)C[C@@H]1C[C@@H](C/C=C(\C)[C@@H](OC3C[C@H](OC)C(O[C@H]4C[C@H](OC)[C@@H](O)[C@H](C)O4)[C@H](C)O3)[C@@H](C)/C=C/C=C3\CO[C@@H]4[C@H](O)C(C)=C[C@@H](C(=O)O1)[C@]34O)O2` (stereo partly drawn), the GI50 was 1600 nM and the TGI came to 3400 nM.
In the same order, the values of `O=C(Cc1ccc(/C=C/C(=O)c2ncc[nH]2)cc1)Nc1ccc(F)cc1` are 974 nM and 3140 nM.
In the same order, the values of `O=c1c2c(=NCCN3CCCC3)cc3c(=O)n(CCCN4CCOCC4)c(=O)c4c(-c5ccc(CN6CCCC6)cc5)cc(c(O)n1CCCN1CCOCC1)c2c4-3` are 32.4 nM and 119 nM.
In the same order, the values of `COc1ccc(C2CC(c3cccc(Nc4ccnc5cc(Cl)ccc45)c3)=NN2C=O)cc1` (stereo not drawn) are 239 nM and 836 nM.
As to `C#Cc1nc(/C=C/C(=O)c2nccn2C)cs1`, the GI50 was 470 nM and the TGI worked out at 1470 nM.
In the same order, the values of `COc1cc(OC)c(S(N)(=O)=O)cc1C(=O)/C=C/c1ccccc1` are 1200 nM and 9280 nM.
The matching figures for `CCN(Cc1ccc(C)cc1)c1ccc(CO)c(Cl)c1`: 16.9 nM and 44.5 nM.
Consider `Cc1cc(O)c(=O)cc2c1C[C@H]1CC(C)(C)/C=C/C[C@]3(C)Oc4cc(=O)c(O)cc(C)c4C[C@H]3C[C@H](O)[C@@]1(C)O2`, for which the GI50 was < 15.2 nM and 7.03 nM; the TGI was 243 nM and 106 nM.
With `CCOC(=O)c1ccc(NC(=O)Nc2nncs2)cc1`, the GI50 is 176 nM and the TGI came out at 14800 nM.
With `C/C(=N\NC(=S)N1CCCCC1)c1ccccn1`, the GI50 is less than 10 nM and the TGI amounted to 135 nM.
In the same order, the values of `CCCCCCNC(=O)Oc1ccc(/C(=C(/C)c2ccc(OC)cc2)c2ccc(OCCN3CCCCCC3)cc2)cc1` are 2040 nM and 4760 nM.
